# Key:
# [1] = tested on: late watergrass; experiment: Test Example 1: herbicidal activity, application before weed generation under submerged conditions (Table 16, symbol A); type: in vivo, late watergrass (Echinochloa oryzicola)
# How it was run: (§1)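 Submerged Wagner pots (alluvial soil, 4 cm water) sown with weed seeds and planted with 2.5-leaf rice seedlings; emulsifiable concentrate diluted in water applied to water surface on sowing day. Held in greenhouse at 25-30 °C; injury scored 0-5 by herbicidal rate after three weeks.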
# [2] = tested on: Japanese bulrush; experiment: Test Example 1: herbicidal activity, application before weed generation under submerged conditions (Table 16, symbol B); type: in vivo, Japanese bulrush (Schoenoplectus juncoides)
# How it was run: as §1
# [3] = tested on: oval-leafed pondweed; experiment: Test Example 1: herbicidal activity, application before weed generation under submerged conditions (Table 16, symbol C); type: in vivo, oval-leafed pondweed (Monochoria vaginalis)
# How it was run: as §1
# [4] = tested on: barnyard grass; experiment: Test Example 3: herbicidal effect by foliage application, Wagner pot (Table 18, symbol H); type: in vivo, barnyard grass (Echinochloa crus-galli)
# How it was run: (§2)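 Plants were sown in alluvial soil held under 0.1–0.5 cm standing water and grown 14 days in a greenhouse at 25–30 °C. An emulsifiable formulation, water-diluted to the set dose, was then sprayed onto the foliage, and effects were scored three weeks later using previously defined criteria.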
# [5] = tested on: Chinese sprangletop; experiment: Test Example 3: herbicidal effect by foliage application, Wagner pot (Table 18, symbol D); type: in vivo, chinese sprangletop (Leptochloa chinensis)
# How it was run: as §2
# [6] = tested on: rice flat sedge; experiment: Test Example 3: herbicidal effect by foliage application, Wagner pot (Table 18, symbol E); type: in vivo, rice flat sedge (Cyperus iria)
# How it was run: as §2
# [7] = tested on: southern crabgrass; experiment: Test Example 4: herbicidal effect by soil treatment (Table 19, symbol F); type: in vivo, southern crabgrass (Digitaria ciliaris)
# How it was run: (§3)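 Scoring uses the grading scale of an earlier test, three weeks post-application. Treatment consists of spraying a diluted emulsion formulation across the surface of sterilized diluvial soil in which seeds are buried near 1.5 cm deep; boxes are kept in a greenhouse between 25° C. and 30° C.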
# [8] = tested on: green foxtail; experiment: Test Example 4: herbicidal effect by soil treatment (Table 19, symbol G); type: in vivo, green foxtail (Setaria viridis)
# How it was run: as §3
# [9] = tested on: barnyard grass; experiment: Test Example 4: herbicidal effect by soil treatment (Table 19, symbol H); type: in vivo, barnyard grass (Echinochloa crus-galli)
# How it was run: as §3
# [10] = tested on: wild oat; experiment: Test Example 4: herbicidal effect by soil treatment (Table 19, symbol I); type: in vivo, wild oat (Avena fatua)
# How it was run: as §3
# [11] = tested on: blackgrass; experiment: Test Example 4: herbicidal effect by soil treatment (Table 19, symbol J); type: in vivo, blackgrass (Alopecurus myosuroides)
# How it was run: as §3
# [12] = tested on: Italian ryegrass; experiment: Test Example 4: herbicidal effect by soil treatment (Table 19, symbol K); type: in vivo, Italian ryegrass (Lolium multiflorum)
# How it was run: as §3
# [13] = tested on: windgrass; experiment: Test Example 4: herbicidal effect by soil treatment (Table 19, symbol L); type: in vivo, windgrass (Apera spica-venti)
# How it was run: as §3
# [14] = tested on: velvetleaf; experiment: Test Example 4: herbicidal effect by soil treatment (Table 19, symbol M); type: in vivo, velvetleaf (Abutilon theophrasti)
# How it was run: as §3
# [15] = tested on: redroot pigweed; experiment: Test Example 4: herbicidal effect by soil treatment (Table 19, symbol N); type: in vivo, redroot pigweed (Amaranthus retroflexus)
# How it was run: as §3
# [16] = tested on: lambsquarters; experiment: Test Example 4: herbicidal effect by soil treatment (Table 19, symbol O); type: in vivo, lambsquarters (Chenopodium album)
# How it was run: as §3
# [17] = tested on: chickweed; experiment: Test Example 4: herbicidal effect by soil treatment (Table 19, symbol P); type: in vivo, common chickweed (Stellaria media)
# How it was run: as §3
# [18] = tested on: persian speedwell; experiment: Test Example 4: herbicidal effect by soil treatment (Table 19, symbol R); type: in vivo, Persian speedwell (Veronica persica)
# How it was run: as §3
# [19] = tested on: southern crabgrass; experiment: Test Example 5: herbicidal effect by foliage application, plastic box (Table 20, symbol F); type: in vivo, southern crabgrass (Digitaria ciliaris); details: foliage application, three weeks after application
# How it was run: (§4)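 Post-emergence foliar test in sterilized diluvial soil. Compound applied as water-diluted emulsion at a predetermined rate to 14-day-old plants; evaluation at three weeks.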
# [20] = tested on: green foxtail; experiment: Test Example 5: herbicidal effect by foliage application, plastic box (Table 20, symbol G); type: in vivo, green foxtail (Setaria viridis); details: foliage application, three weeks after application
# How it was run: as §4
# [21] = tested on: barnyard grass; experiment: Test Example 5: herbicidal effect by foliage application, plastic box (Table 20, symbol H); type: in vivo, barnyard grass (Echinochloa crus-galli); details: foliage application, three weeks after application
# How it was run: as §4
# [22] = tested on: wild oat; experiment: Test Example 5: herbicidal effect by foliage application, plastic box (Table 20, symbol I); type: in vivo, wild oat (Avena fatua); details: foliage application, three weeks after application
# How it was run: as §4
# [23] = tested on: blackgrass; experiment: Test Example 5: herbicidal effect by foliage application, plastic box (Table 20, symbol J); type: in vivo, blackgrass (Alopecurus myosuroides); details: foliage application, three weeks after application
# How it was run: as §4
# [24] = tested on: Italian ryegrass; experiment: Test Example 5: herbicidal effect by foliage application, plastic box (Table 20, symbol K); type: in vivo, Italian ryegrass (Lolium multiflorum); details: foliage application, three weeks after application
# How it was run: as §4
# [25] = tested on: windgrass; experiment: Test Example 5: herbicidal effect by foliage application, plastic box (Table 20, symbol L); type: in vivo, windgrass (Apera spica-venti); details: foliage application, three weeks after application
# How it was run: as §4
# [26] = tested on: velvetleaf; experiment: Test Example 5: herbicidal effect by foliage application, plastic box (Table 20, symbol M); type: in vivo, velvetleaf (Abutilon theophrasti); details: foliage application, three weeks after application
# How it was run: as §4
# [27] = tested on: lambsquarters; experiment: Test Example 5: herbicidal effect by foliage application, plastic box (Table 20, symbol O); type: in vivo, lambsquarters (Chenopodium album); details: foliage application, three weeks after application
# How it was run: as §4
# [28] = tested on: persian speedwell; experiment: Test Example 5: herbicidal effect by foliage application, plastic box (Table 20, symbol R); type: in vivo, Persian speedwell (Veronica persica); details: foliage application, three weeks after application
# How it was run: as §4
# [29] = amount of applied herbicide 344 g/ha
# [30] = amount of applied herbicide 320 g/ha
compound,measurement,setting,value
CCCC(=O)Oc1c(C)nn(C)c(=O)c1-c1c(-c2ccc(F)cc2OC)sc2cc(OC)c(Cl)cc12 [5-076],"Herbicidal effect, A: late watergrass",[1]; [29],2 (Herbicidal rate of 20% or more and less than 40%)
same,"Herbicidal effect, B: Japanese bulrush",[2]; [29],0 (Herbicidal rate of 5% or less (almost no effect))
same,"Herbicidal effect, C: oval-leafed pondweed",[3]; [29],1 (Herbicidal rate of 5% or more and less than 20%)
same,herbicidal effect on barnyard grass (H),[4]; 344 g/ha,5 (Herbicidal rate of 90% or more (almost completely withered))
same,herbicidal effect on Chinese sprangletop (D),[5]; 344 g/ha,0 (Herbicidal rate of 5% or less (almost no effect))
same,herbicidal effect on rice flat sedge (E),[6]; 344 g/ha,0 (Herbicidal rate of 5% or less (almost no effect))
same,"F: southern crabgrass, herbicidal effect grade",[7]; [29],3 (Herbicidal rate of 40% or more and less than 70%)
same,"G: green foxtail, herbicidal effect grade",[8]; [29],3 (Herbicidal rate of 40% or more and less than 70%)
same,"H: barnyard grass, herbicidal effect grade",[9]; [29],1 (Herbicidal rate of 5% or more and less than 20%)
same,"I: wild oat, herbicidal effect grade",[10]; [29],0 (Herbicidal rate of 5% or less (almost no effect))
same,"J: blackgrass, herbicidal effect grade",[11]; [29],0 (Herbicidal rate of 5% or less (almost no effect))
same,"K: Italian ryegrass, herbicidal effect grade",[12]; [29],0 (Herbicidal rate of 5% or less (almost no effect))
same,"L: windgrass, herbicidal effect grade",[13]; [29],0 (Herbicidal rate of 5% or less (almost no effect))
same,"M: velvetleaf, herbicidal effect grade",[14]; [29],1 (Herbicidal rate of 5% or more and less than 20%)
same,"N: redroot pigweed, herbicidal effect grade",[15]; [29],4 (Herbicidal rate of 70% or more and less than 90%)
same,"O: lambsquarters, herbicidal effect grade",[16]; [29],3 (Herbicidal rate of 40% or more and less than 70%)
same,"P: chickweed, herbicidal effect grade",[17]; [29],0 (Herbicidal rate of 5% or less (almost no effect))
same,"R: persian speedwell, herbicidal effect grade",[18]; [29],0 (Herbicidal rate of 5% or less (almost no effect))
same,herbicidal effect on southern crabgrass (F),[19]; 344 g/ha,1 (Herbicidal rate of 5% or more and less than 20%)
same,herbicidal effect on green foxtail (G),[20]; 344 g/ha,4 (Herbicidal rate of 70% or more and less than 90%)
same,herbicidal effect on barnyard grass (H),[21]; 344 g/ha,3 (Herbicidal rate of 40% or more and less than 70%)
same,herbicidal effect on wild oat (I),[22]; 344 g/ha,0 (Herbicidal rate of 5% or less (almost no effect))
same,herbicidal effect on blackgrass (J),[23]; 344 g/ha,1 (Herbicidal rate of 5% or more and less than 20%)
same,herbicidal effect on Italian ryegrass (K),[24]; 344 g/ha,0 (Herbicidal rate of 5% or less (almost no effect))
same,herbicidal effect on windgrass (L),[25]; 344 g/ha,3 (Herbicidal rate of 40% or more and less than 70%)
same,herbicidal effect on velvetleaf (M),[26]; 344 g/ha,3 (Herbicidal rate of 40% or more and less than 70%)
same,herbicidal effect on lambsquarters (O),[27]; 344 g/ha,4 (Herbicidal rate of 70% or more and less than 90%)
same,herbicidal effect on persian speedwell (R),[28]; 344 g/ha,0 (Herbicidal rate of 5% or less (almost no effect))
CCCC(=O)Oc1c(C)nn(C)c(=O)c1-c1c(-c2ccccc2OC)sc2cc(OC)c(Cl)cc12 [5-069],"Herbicidal effect, A: late watergrass",[1]; [30],3 (Herbicidal rate of 40% or more and less than 70%)
same,"Herbicidal effect, B: Japanese bulrush",[2]; [30],1 (Herbicidal rate of 5% or more and less than 20%)
same,"Herbicidal effect, C: oval-leafed pondweed",[3]; [30],0 (Herbicidal rate of 5% or less (almost no effect))
same,herbicidal effect on barnyard grass (H),[4]; 320 g/ha,4 (Herbicidal rate of 70% or more and less than 90%)
same,herbicidal effect on Chinese sprangletop (D),[5]; 320 g/ha,0 (Herbicidal rate of 5% or less (almost no effect))
same,herbicidal effect on rice flat sedge (E),[6]; 320 g/ha,0 (Herbicidal rate of 5% or less (almost no effect))
same,"F: southern crabgrass, herbicidal effect grade",[7]; [30],0 (Herbicidal rate of 5% or less (almost no effect))
same,"G: green foxtail, herbicidal effect grade",[8]; [30],0 (Herbicidal rate of 5% or less (almost no effect))
same,"H: barnyard grass, herbicidal effect grade",[9]; [30],0 (Herbicidal rate of 5% or less (almost no effect))
same,"I: wild oat, herbicidal effect grade",[10]; [30],0 (Herbicidal rate of 5% or less (almost no effect))
same,"J: blackgrass, herbicidal effect grade",[11]; [30],0 (Herbicidal rate of 5% or less (almost no effect))
same,"K: Italian ryegrass, herbicidal effect grade",[12]; [30],0 (Herbicidal rate of 5% or less (almost no effect))
same,"L: windgrass, herbicidal effect grade",[13]; [30],0 (Herbicidal rate of 5% or less (almost no effect))
same,"M: velvetleaf, herbicidal effect grade",[14]; [30],0 (Herbicidal rate of 5% or less (almost no effect))
same,"N: redroot pigweed, herbicidal effect grade",[15]; [30],2 (Herbicidal rate of 20% or more and less than 40%)
same,"O: lambsquarters, herbicidal effect grade",[16]; [30],0 (Herbicidal rate of 5% or less (almost no effect))
same,"P: chickweed, herbicidal effect grade",[17]; [30],0 (Herbicidal rate of 5% or less (almost no effect))
same,"R: persian speedwell, herbicidal effect grade",[18]; [30],0 (Herbicidal rate of 5% or less (almost no effect))
same,herbicidal effect on southern crabgrass (F),[19]; 320 g/ha,4 (Herbicidal rate of 70% or more and less than 90%)
same,herbicidal effect on green foxtail (G),[20]; 320 g/ha,3 (Herbicidal rate of 40% or more and less than 70%)
same,herbicidal effect on barnyard grass (H),[21]; 320 g/ha,3 (Herbicidal rate of 40% or more and less than 70%)
same,herbicidal effect on wild oat (I),[22]; 320 g/ha,0 (Herbicidal rate of 5% or less (almost no effect))
same,herbicidal effect on blackgrass (J),[23]; 320 g/ha,0 (Herbicidal rate of 5% or less (almost no effect))
same,herbicidal effect on Italian ryegrass (K),[24]; 320 g/ha,0 (Herbicidal rate of 5% or less (almost no effect))
same,herbicidal effect on windgrass (L),[25]; 320 g/ha,2 (Herbicidal rate of 20% or more and less than 40%)
same,herbicidal effect on velvetleaf (M),[26]; 320 g/ha,3 (Herbicidal rate of 40% or more and less than 70%)
same,herbicidal effect on lambsquarters (O),[27]; 320 g/ha,3 (Herbicidal rate of 40% or more and less than 70%)
same,herbicidal effect on persian speedwell (R),[28]; 320 g/ha,0 (Herbicidal rate of 5% or less (almost no effect))
